Reference: EP1024807B1, “USE OF THE COMPOUND 2-METHOXYPHENYL-1-METHYL-5P-METHYLBENZOYL-PYRROL-2-ACETAMIDO ACETATE FOR THE PRODUCTION OF AN ANTI-INFLAMMATORY DRUG WITH PREVENTION OF GASTRIC HYPERSECRETION AND RENAL IMPAIRMENT” (MEDOSAN Ricerca S.r.l., priority 1997, dated 1999)
Entries after “also recorded” stand apart in the source; their conditions may differ.

Legend:
Rats = assay: Adjuvant arthritis (joint diameter and patellar bone mass); format: in vivo; details: for Swelling Diameter difference (L-R) / Joint diameter (mm) Left / Joint diameter (mm) Right: day 0-3; for Joint diameter (mm) Left / Bone mass (mg) Left: left = arthritic joint; for Joint diameter (mm) Right / Bone mass (mg) Right: right = saline control joint; for % Change: ([left-right]/right)X100; for Bone loss Left-Right / Bone mass (mg) Left / Bone mass (mg) Right: patellar bone
Description: The drugs were administered daily by oral gavage for 4 days (day 0-3); piroxicam and MED 15 were dissolved in 5% Gum arabic + 0.01% Tween 80, and administered in a volume of 0.5ml. Piroxicam was administered as 3mg/kg and MED 15 was administered as 25, 50 and 100mg/kg doses. Table 8 bis illustrating dosage regimes. L=left stifle joint, R=Right stifle joint.
Under halothane anaesthesia, rats received 200µg of heat-killed finely ground Mycobactyerium tubercolosis in 25µl (80mg/10ml sterile saline) injected intra-articulary into the left stifle joint. The contralateral joint received 25µl 0.9% sterile saline. Control animals received 25µl of 0.9% sterile saline in both knees. SGE 50µl microsyringes with a volume lock calibrated at 25µl were used with 30G stainless steel needles. Solutions were prepared sterile, and aseptic technique was used throughout, with sterilisation of syringes between groups.
The rats were killed by carbon dioxide suffocation. The body weight was noted and the skin overlying the stifle joints was divided and the joint diameters assessed in mm using Mitutoyo vernier callipers (530-312, 0.02mm).
The patellae were dissected, weighed (Sartorius, 0.01mg) and then immersed in 1ml digestion buffer (see below) to remove soft tissue.
Digestive buffer was prepared fresh to the following formula; disodium hydrogen orthophosphate 20mM, EDTA 1mM and diothiothreitol at 2mM. Papain (EC 3.4.22.2) was added at a concentration of 6U/ml. Each patella was digested in 1ml of digestive buffer at 56°C for 4 hours. The residual paterllar bones were dried (100°C 24 hours) and weighed (Sartorius 0.01mg).
Results are presented as follows: left and right parameter alone, the difference between arthritic and contralateral control joint (left-right); and % difference between arthritic and control joints ([left-right]/right]X100).
Calculations were carried out using the spreadsheet program Lotus 123. Statistical comparisons were made between the absolute differences using INSTAT Mann Whitney unpaired two-tailed statistical test.

Acute toxicity studies = details: in vivo
rat = assay: Chronic oral administration for 52 weeks, gastric damage; format: in vivo
Saccharomycetes D4 = assay: Mitotic conversion test; format: cell-based
[1] = tested on: human lymphocites cultivated in vitro; assay: Chromosome aberrations in lymphocytes in vitro; format: cell-based
rat bone marrow = assay: Micronucleus test; details: in vivo
patients = assay: Clinical trials: tolerability, adverse events and suspensions of treatment; format: in vivo, man; details: in vivo
Text: Interest in the amtolmetin guacyl molecule arose following a thorough analysis of the results of 31 comparative and 6 non-comparative clinical trials involving 1596 patients. […] Turthermore the physician, being aware of administering an NSAID, was expecting adverse events and could not be expected to be an impartial observer. The few cases of gastro-intestinal phenomena reported with amtolmetin guacyl were transitory and in no event accompanied by the presence of occult blood in the stools. Moreover, even in the presence of a reported side-effect it was almost never necessary to suspend treatment (0.4% of suspensions).
Following are summarized the results obtained on a total of 1596 patients in 37 clinical trials.
Confirmation of the above described advantages is the very low incidence of treatment suspension for adverse events found in clinics (Table 17), which is not the case for most of NSAIDs known in the art (Table 18).

gastric acid secretion = assay: Gastric acid secretion in the rat; format: in vivo
Text: On the basis of the above series of observations, we decided to study the pharmacological behaviour of a number of widely used NSAIDs (including amtolmetin guacyl) towards the gastric mucosa in the rat, as previously described. […] The first hypothesis was that we were deling with an anti-H2 drug, given the fact that its potency could be compared with that of cimetidine.
The introduction of a guaiacol moiety into the amtolmetin guacyl molecule led to the insertion of a vanilloid radical which confers gastroprotective properties to the molecule.

osteoarthritis = assay: Clinical trials in osteoarthritis; format: in vivo, man; details: 550 patients, mean 80 days; versus seven reference NSAIDs; listed as Amtolmetin guacyl
Text: In this degenerative disease amtolmetin guacyl was compared with diclofenac, diflunisal, flurbiprofen, ibuprofen, ketoprofen, naproxen and tolmetin.

post-operative pain = assay: Clinical trials in post-operative pain; format: in vivo, man
Description: As reported in Table 14, the analgesic properties of amtolmetin guacyl were tested in postoperative pain with good results. […] The peak effect is obtained only after 2 hours, and it is maintained for 6 hours.

[2] = tested on: post-traumatic arthralgia; assay: Clinical comparison in post-traumatic arthralgia; format: in vivo, man
Text: The same can be said in the treatment of post-traumatic arthralgia.

COX1 (cyclooxygenase 1) = target: T1, COX1 (cyclooxygenase 1) (Rattus norvegicus, UniProt Q63921); assay: Pharmacological studies in rats: cyclooxygenase inhibition; details: in vivo
T1 construct: the pharmacological studies conducted in rats; from tissue; host or cells: rat (in vivo; tissue not given)

COX2 (cyclooxygenase 2) = target: T2, COX2 (cyclooxygenase 2) (Rattus norvegicus, UniProt P35355); assay: as above; details: in vivo
T2 construct: the pharmacological studies conducted in rats; from tissue; host or cells: rat (in vivo; tissue not given)

platelet aggregation = assay: Platelet aggregation
Text: For all of these reasons the drug was expected to induce gastric damage and inhibit platelet aggregation.

T1 sequence (Q63921 27-602): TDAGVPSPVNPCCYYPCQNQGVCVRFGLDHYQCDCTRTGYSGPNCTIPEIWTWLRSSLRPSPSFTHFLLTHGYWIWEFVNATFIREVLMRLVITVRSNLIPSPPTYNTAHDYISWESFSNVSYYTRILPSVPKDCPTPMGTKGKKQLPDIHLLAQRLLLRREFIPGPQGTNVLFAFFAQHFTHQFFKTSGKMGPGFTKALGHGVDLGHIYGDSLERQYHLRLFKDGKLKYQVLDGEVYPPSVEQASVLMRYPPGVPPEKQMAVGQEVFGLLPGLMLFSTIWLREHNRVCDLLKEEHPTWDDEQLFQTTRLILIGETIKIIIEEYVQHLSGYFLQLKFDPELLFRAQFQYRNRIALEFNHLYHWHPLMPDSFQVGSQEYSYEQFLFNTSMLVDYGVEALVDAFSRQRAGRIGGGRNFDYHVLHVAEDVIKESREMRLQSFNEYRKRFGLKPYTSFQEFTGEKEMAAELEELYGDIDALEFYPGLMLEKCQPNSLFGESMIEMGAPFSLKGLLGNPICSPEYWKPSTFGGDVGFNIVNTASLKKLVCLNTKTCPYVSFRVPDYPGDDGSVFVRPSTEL
T2 sequence (P35355 18-604): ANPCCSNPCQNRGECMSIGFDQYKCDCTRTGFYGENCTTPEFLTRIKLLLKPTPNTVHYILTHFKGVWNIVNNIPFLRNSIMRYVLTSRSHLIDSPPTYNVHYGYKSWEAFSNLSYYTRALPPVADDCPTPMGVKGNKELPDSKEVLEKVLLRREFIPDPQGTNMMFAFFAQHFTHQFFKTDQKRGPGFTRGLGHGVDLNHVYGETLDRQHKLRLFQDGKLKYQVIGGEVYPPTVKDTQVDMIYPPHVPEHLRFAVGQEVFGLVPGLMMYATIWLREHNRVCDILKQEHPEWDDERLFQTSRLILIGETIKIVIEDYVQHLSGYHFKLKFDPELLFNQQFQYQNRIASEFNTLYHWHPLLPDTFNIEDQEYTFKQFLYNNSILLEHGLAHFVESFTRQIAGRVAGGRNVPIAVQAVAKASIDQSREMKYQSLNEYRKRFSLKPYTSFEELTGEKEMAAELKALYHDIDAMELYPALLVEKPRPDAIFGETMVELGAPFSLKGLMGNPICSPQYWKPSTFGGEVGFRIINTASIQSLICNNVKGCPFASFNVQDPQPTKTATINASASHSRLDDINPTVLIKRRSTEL

COc1ccccc1OC(=O)CNC(=O)Cc1ccc(C(=O)c2ccc(C)cc2)n1C [MED 15, 2-methoxyphenyl-1-methyl-5p-methylbenzoylpyrrol-2-acetamido acetate]
Swelling Diameter difference (L-R) (Rats; 25mg/kg daily oral): 2.22 mm
Joint diameter (mm) Left (Rats; 25mg/kg daily oral): 11.57 mm
Joint diameter (mm) Right (Rats; 25mg/kg daily oral): 9.35 mm
Swelling Diameter difference (L-R) (Rats; 50mg/kg daily oral): 2.06 mm
Joint diameter (mm) Left (Rats; 50mg/kg daily oral): 10.95 mm
Joint diameter (mm) Right (Rats; 50mg/kg daily oral): 8.88 mm
Swelling Diameter difference (L-R) (Rats; 100mg/kg daily oral): 1.38 mm
Joint diameter (mm) Left (Rats; 100mg/kg daily oral): 10.26 mm
Joint diameter (mm) Right (Rats; 100mg/kg daily oral): 8.88 mm
protective effect against bone loss compared to piroxicam (Rats; dose of 100mg/kg): not significantly different to piroxicam
% Change (Rats; joint diameter, 25mg/kg daily oral): 24.04%
% Change (Rats; joint diameter, 50mg/kg daily oral): 23.36%
% Change (Rats; joint diameter, 100mg/kg daily oral): 15.71%
% Change (Rats; patellar bone mass, 25mg/kg daily oral): 45.45%
% Change (Rats; patellar bone mass, 50mg/kg daily oral): 40.55%
% Change (Rats; patellar bone mass, 100mg/kg daily oral): 31.85%
protection against bone loss (Rats; patellar bone mass, arthritic groups): dose dependent protective effect
Bone loss Left-Right (Rats; 25mg/kg daily oral): -1.94 mg
Bone mass (mg) Left (Rats; 25mg/kg daily oral): 2.33 mg
Bone mass (mg) Right (Rats; 25mg/kg daily oral): 4.27 mg
Bone loss Left-Right (Rats; 50mg/kg daily oral): -1.69 mg
Bone mass (mg) Left (Rats; 50mg/kg daily oral): 2.49 mg
Bone mass (mg) Right (Rats; 50mg/kg daily oral): 4.18 mg
Bone loss Left-Right (Rats; 100mg/kg daily oral): -1.38 mg
Bone mass (mg) Left (Rats; 100mg/kg daily oral): 2.97 mg
Bone mass (mg) Right (Rats; 100mg/kg daily oral): 4.34 mg
acute toxicity, tolerability (Acute toxicity studies): excellent drug tolerability
gastric damage (rat): absence of gastric damage
mitotic conversion (Saccharomycetes D4): absence of amtolmetin guacyl-related damage
chromosomic aberrations [1]: absence of amtolmetin guacyl-related damage
micronucleus test (rat bone marrow): absence of amtolmetin guacyl-related damage
Treatment suspended (patients; human): 4
incidence of adverse events involving the stomach (patients; human): ~5%
reports of gastric discomfort (patients; human): 4%
Treatment suspended (patients; human, 10 days): 3
Treatment suspended % (patients; human, 10 days): 1,6%
Treatment suspended (patients; human, 21 days): 0
Treatment suspended (patients; human, 30 days): 1
Treatment suspended % (patients; human, 30 days): 0,7%
Treatment suspended (patients; human, 60 days): 0
Treatment suspended (patients; human, 90 days): 0
Treatment suspended (patients; human, 120 days): 0
Treatment suspended (patients; human, 150 days): 0
Treatment suspended (patients; human, 180 days): 0
gastric lesions (patients): not to induce gastric lesions
variations of the routine biological parameters (patients): no significant variations
basal acid secretion (gastric acid secretion; basal, unstimulated): fails to modify
effect on gastric acid (gastric acid secretion; rat, in vivo): reduction of gastric acid
activity on gastric secretion after CGRP antagonist (gastric acid secretion; with CGRP8-37, peptone-stimulated, fig. 14): blockage
effect on gastric acid secretion after capsaicin receptor antagonist (gastric acid secretion; with capsazepine, peptone-stimulated, fig. 16): inhibited by the capsazepine antagonist
Evaluation of antiphlogistic activity (osteoarthritis): statistically significant more rapid and more marked activity; also recorded: Amtolmetin guacyl was more rapid and more active in a statistically significant manner in osteoarthritis compared to the reference NSAIDs
time at which the effect is already evaluable (post-operative pain; following administration): 30 '
antalgic effect (post-operative pain; post-operative pain): statistically significant
time the effect is maintained (post-operative pain; post-operative pain): 6 h
time to peak effect (post-operative pain; post-operative pain): 2 h
duration of effect [2]: 6 h
latency time [2]: 20 min
time to reach peak effect [2]: 1 h
inhibition of COX1 (COX1 (cyclooxygenase 1)): inhibition
inhibition of COX2 (COX2 (cyclooxygenase 2)): inhibition
platelet antiaggregating properties (platelet aggregation): significant platelet antiaggregating properties
